Source: US20220267380A1, “Glycopeptides Increasing Lipid Synthesis” (TFCHEM, priority 2019, published 2022)

System: normal human dermal fibroblasts (NHDF)
Assay: Gene expression in NHDF, full transcriptome analysis with Affymetrix U219 microarray
Type: cell-based
Details: NHDF, 7.5 mg/ml, 24 h
Description: In the present study, the transcriptional effects (modulation of gene expression) of compounds 1, 2, 3 and 4 were evaluated on normal human dermal fibroblasts (NHDF) under basal conditions.
More specifically, the comparative analysis of the different transcriptomic profiles was performed using an Affymetrix GeneAtlas platform and the human “full transcriptome” U219 chip, which includes 36,000 transcripts and variants.
Fibroblasts were seeded in 24-well plates and cultured in culture medium for 24 hours. The medium was then replaced by assay medium and cells were incubated for further 24 hours. The medium was replaced by assay medium containing or not (control) the test compounds at different concentrations and the cells were preincubated for 24 hours. All experimental conditions were performed in triplicate. At the end of incubation, the culture supernatants were removed and the cells were washed in a phosphate buffered saline (PBS) solution and immediately frozen at −80° C.
Before RNA extraction, the replicates were pooled. Total RNA was extracted from each sample using TriPure Isolation Reagent® according to the supplier's instructions. The amount and quality of total RNA were evaluated for all samples using capillary electrophoresis (Bioanalyzer 2100, Agilent technologies). From each RNA, a labeled and amplified anti-sens RNA (aRNA) was obtained using GeneChip 3′IVT PLUS Kit (Affymetrix). For each labeled and amplified aRNA sample the profiles were evaluated before and after fragmentation using capillary electrophoresis (Bioanalyzer 2100, Agilent technologies). Hybridization of fragmented aRNA onto Affymetrix® U219 chip (36,000 transcripts and variants) was performed in the GeneAtlas™ fluidics Affymetrix® hybridization station for 20 hours at 45° C. U219 chip was analyzed using the GeneAtlas™ Imaging station (Affymetrix®—resolution 2 μm) to generate fluorescence intensity data.
Expression Console and Quality controls: data were normalized with the Expression Console (Affymetrix®) software using RMA algorithm. Then a quality control of the labeling and the hybridization was performed. Hybridization and labeling steps successfully passed the quality controls for these experiments.
Data reduction, Excel file description: once normalized with Expression Console, data were transferred into a Microsoft Excel® file in order to go further into data reduction.
Calculation and tools were added in order to rank and sort data, and finally to support data interpretation. Detection thresholds in terms of fold change were defined and applied on normalized data.
Results are considered and presented or commented per gene (and not probe). A probe set is a collection of probes designed to interrogate a given sequence of a gene. For data interpretation, the most important relative expression value obtained with one probe is considered to be representative of the corresponding gene. The file contains the following data: • Relative expression (RE) for each sample, • Fold change calculation, • Gene information.

[1] = relative expression adjusted to detection limit (<20)

SMILES: C[C@H](NC(=O)[C@@H](N)CCCCNCC(F)(F)[C@]1(O)O[C@H](CO)[C@H](O)[C@H](O)[C@H]1O)C(=O)O [Compound 2]
- Fold change, APOD (vs control): 0.50
- Fold change, DHCR24 (vs control): 2.13
- Fold change, HACD1 (vs control): 2.01
- Fold change, NEU1 (vs control): 2.18
- Fold change, SERINC2 (vs control): 2.09
- Fold change, TM7SF2 (vs control): 2.18
- Fold change, TXNRD1 (vs control): 2.07
- Fold change, SCD (vs control, Affymetrix probe set 11715561_s_at): 2.01
- Fold change, SCD (vs control, Affymetrix probe set 11715562_x_at): 2.02
- Fold change, SCD (vs control, Affymetrix probe set 11715563_s_at): 2.07
- Fold change, FADS1 (vs control, Affymetrix probe set 11752670_a_at): 2.04
- Fold change, FADS1 (vs control, Affymetrix probe set 11755251_x_at): 2.19
- REadj2, APOD [1]: 174.26
- REadj2, DHCR24 [1]: 178.12
- REadj2, HACD1 [1]: 516.24
- REadj2, NEU1 [1]: 495.48
- REadj2, SERINC2 [1]: 245.33
- REadj2, TM7SF2 [1]: 88.53
- REadj2, TXNRD1 [1]: 1384.05
- REadj2, SCD (relative expression adjusted to detection limit (<20), Affymetrix probe set 11715561_s_at): 277.57
- REadj2, SCD (relative expression adjusted to detection limit (<20), Affymetrix probe set 11715562_x_at): 302.56
- REadj2, SCD (relative expression adjusted to detection limit (<20), Affymetrix probe set 11715563_s_at): 241.64
- REadj2, FADS1 (relative expression adjusted to detection limit (<20), Affymetrix probe set 11752670_a_at): 1734.26
- REadj2, FADS1 (relative expression adjusted to detection limit (<20), Affymetrix probe set 11755251_x_at): 1114.87
